According to ChEMBL document CHEMBL1201862, “PubChem BioAssay data set” (2004):
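Five concentrations, 48 hours, 96-well plates. Abbreviation: GI50, concentration required for 50% inhibition of growth.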 The source made the active and inactive calls. Cut-off read from the data, not from the text of the source: active = GI50 up to about 1.1 µM and inactive = higher.

How the values were obtained:
Assay in all cases: NCI-60 cell line screen, 48 h
SK-MEL-5 = test system: SK-MEL-5
SN12C = test system: SN12C
OVCAR-8 = test system: OVCAR-8
DLD-1 = test system: DLD-1
786-0 = test system: 786-0
HCC 2998 = test system: HCC 2998
OVCAR-5 = test system: OVCAR-5
HCT-15 = test system: HCT-15
DMS-114 = test system: DMS-114
M14 = test system: M14
CAKI-1 = test system: CAKI-1
HOP-62 = test system: HOP-62
RPMI-8226 = test system: RPMI-8226
CCRF-CEM = test system: CCRF-CEM
LOX IMVI = test system: LOX IMVI
XF498 = test system: XF498
M19-MEL = test system: M19-MEL
U-251 = test system: U-251
IGROV-1 = test system: IGROV-1
SK-MEL-2 = test system: SK-MEL-2
KM-20L2 = test system: KM-20L2
DMS-273 = test system: DMS-273
TK-10 = test system: TK-10
K562 = test system: K562
MOLT-4 = test system: MOLT-4
Malme-3M = test system: Malme-3M
OVCAR-4 = test system: OVCAR-4
SW-620 = test system: SW-620
A549 = test system: A549
SK-OV-3 = test system: SK-OV-3
LXFL 529 = test system: LXFL 529
ACHN = test system: ACHN
COLO 205 = test system: COLO 205
HL-60 = test system: HL-60
SR = test system: SR
UACC-62 = test system: UACC-62
EKVX = test system: EKVX
UO-31 = test system: UO-31
SNB-75 = test system: SNB-75
NCI-H460 = test system: NCI-H460
SF-268 = test system: SF-268
KM12 = test system: KM12
NCI-H522 = test system: NCI-H522
NCI-H226 = test system: NCI-H226
OVCAR-3 = test system: OVCAR-3
HCT-116 = test system: HCT-116
SF-539 = test system: SF-539
SNB-78 = test system: SNB-78
RXF 393 = test system: RXF 393
UACC-257 = test system: UACC-257
SF-295 = test system: SF-295
SNB-19 = test system: SNB-19
HT-29 = test system: HT-29
HOP-92 = test system: HOP-92
A498 = test system: A498
NCI-H23 = test system: NCI-H23
SK-MEL-28 = test system: SK-MEL-28

CC#Cc1c(O)c2c(c(O)c1C#CC)C(=O)c1ccccc1C2=O
GI50 (SK-MEL-5): > 100 µM (inactive)
GI50 (SN12C): > 100 µM (inactive)
GI50 (OVCAR-8): > 100 µM (inactive)
GI50 (DLD-1): > 100 µM (inactive)
GI50 (786-0): > 100 µM (inactive)
GI50 (HCC 2998): > 100 µM (inactive)
GI50 (OVCAR-5): > 100 µM (inactive)
GI50 (HCT-15): > 100 µM
GI50 (DMS-114): > 100 µM (inactive)
GI50 (M14): > 100 µM (inactive)
GI50 (CAKI-1): > 100 µM (inactive)
GI50 (HOP-62): > 100 µM (inactive)
GI50 (RPMI-8226): 54.5 µM (inactive)
GI50 (CCRF-CEM): > 100 µM (inactive)
GI50 (LOX IMVI): 93.5 µM (inactive)
GI50 (XF498): > 100 µM (inactive)
GI50 (M19-MEL): > 100 µM (inactive)
GI50 (U-251): > 100 µM (inactive)
GI50 (IGROV-1): > 100 µM (inactive)
GI50 (SK-MEL-2): > 100 µM (inactive)
GI50 (KM-20L2): > 100 µM (inactive)
GI50 (DMS-273): > 100 µM (inactive)
GI50 (TK-10): > 100 µM (inactive)
GI50 (K562): > 100 µM (inactive)
GI50 (MOLT-4): > 100 µM (inactive)
GI50 (Malme-3M): > 100 µM (inactive)
GI50 (OVCAR-4): > 100 µM (inactive)
GI50 (SW-620): > 100 µM (inactive)
GI50 (A549): > 100 µM (inactive)
GI50 (SK-OV-3): > 100 µM (inactive)
GI50 (LXFL 529): 11 µM (inactive)
GI50 (ACHN): > 100 µM (inactive)
GI50 (COLO 205): > 100 µM (inactive)
GI50 (HL-60): > 100 µM (inactive)
GI50 (SR): > 100 µM (inactive)
GI50 (UACC-62): 64.6 µM (inactive)
GI50 (EKVX): > 100 µM (inactive)

c1cnc2c3[nH]cc4[nH]c5ccccc5c4c-3nc2c1
GI50 (SK-MEL-5): > 100 µM (inactive)
GI50 (UO-31): 42.4 µM (inactive)
GI50 (SN12C): > 100 µM (inactive)
GI50 (OVCAR-8): 45.1 µM (inactive)
GI50 (SNB-75): 51.9 µM (inactive)
GI50 (DLD-1): 37.8 µM (inactive)
GI50 (NCI-H460): 35.6 µM (inactive)
GI50 (SF-268): 84.5 µM (inactive)
GI50 (786-0): 44.4 µM (inactive)
GI50 (KM12): 36.1 µM (inactive)
GI50 (NCI-H522): > 100 µM (inactive)
GI50 (HCC 2998): 52.4 µM (inactive)
GI50 (OVCAR-5): > 100 µM (inactive)
GI50 (NCI-H226): 48.3 µM (inactive)
GI50 (HCT-15): 67.5 µM
GI50 (DMS-114): > 100 µM (inactive)
GI50 (OVCAR-3): 53 µM (inactive)
GI50 (HCT-116): 44.7 µM (inactive)
GI50 (M14): > 100 µM (inactive)
GI50 (SF-539): 93.3 µM (inactive)
GI50 (CAKI-1): 64.1 µM (inactive)
GI50 (HOP-62): 40.4 µM (inactive)
GI50 (RPMI-8226): 27.6 µM (inactive)
GI50 (CCRF-CEM): 24.2 µM (inactive)
GI50 (LOX IMVI): 52.5 µM (inactive)
GI50 (XF498): > 100 µM (inactive)
GI50 (M19-MEL): > 100 µM (inactive)
GI50 (U-251): 75.3 µM (inactive)
GI50 (SNB-78): > 100 µM (inactive)
GI50 (IGROV-1): > 100 µM (inactive)
GI50 (SK-MEL-2): 30.7 µM (inactive)
GI50 (RXF 393): 93.3 µM (inactive)
GI50 (KM-20L2): 76.2 µM (inactive)
GI50 (UACC-257): > 100 µM (inactive)
GI50 (SF-295): 47.9 µM (inactive)
GI50 (DMS-273): 72.9 µM (inactive)
GI50 (TK-10): > 100 µM (inactive)
GI50 (K562): 36.5 µM (inactive)
GI50 (SNB-19): > 100 µM (inactive)
GI50 (MOLT-4): 22.7 µM (inactive)
GI50 (HT-29): 29.8 µM (inactive)
GI50 (HOP-92): 16.9 µM (inactive)
GI50 (Malme-3M): 28.4 µM (inactive)
GI50 (OVCAR-4): 44 µM (inactive)
GI50 (SW-620): 55.2 µM (inactive)
GI50 (A549): > 100 µM (inactive)
GI50 (A498): > 100 µM (inactive)
GI50 (SK-OV-3): > 100 µM (inactive)
GI50 (LXFL 529): 68.1 µM (inactive)
GI50 (NCI-H23): > 100 µM (inactive)
GI50 (ACHN): 61.4 µM (inactive)
GI50 (COLO 205): 54.7 µM (inactive)
GI50 (HL-60): 76 µM (inactive)
GI50 (UACC-62): > 100 µM (inactive)
GI50 (EKVX): > 100 µM (inactive)
GI50 (SK-MEL-28): 50.5 µM (inactive)
